Assay results from patent publication US4520112A, “Assay method for organic calcium antagonist drugs and a kit for such an assay” (The Johns Hopkins University, priority 1983, dated 1985).

system: calcium antagonist receptors; assay: not given; details: literature reports; cited from earlier work

Question: Which “effect on 3H-nitrendipine binding” value does the source give for `COc1ccc([C@@H]2Sc3ccccc3N(CCN(C)C)C(=O)[C@@H]2OC(C)=O)cc1` [diltiazem] here?
Answer: The value was “interact allosterically with the same receptor site and also reduce ^3 H-nitrendipine binding”.

Question: For `COC(=O)C1=C(C)NC(C)=C(C(=O)OC)C1c1ccccc1[N+](=O)[O-]` [nifedipine], which “effect on 3H-nitrendipine binding” value is on record?
Answer: The value was “compete directly”.

Question: With `COc1ccc(CCN(C)CCCC(C#N)(c2ccc(OC)c(OC)c2)C(C)C)cc1OC` (stereo not shown) [verapamil] as the compound, how does the “effect on 3H-nitrendipine binding” value read?
Answer: Its value is “interact allosterically with the same receptor site and also reduce ^3 H-nitrendipine binding”.

system: calcium channel receptor (bovine cerebral cortex membranes); assay: 3H-nitrendipine binding to cerebral cortex membranes (calcium channel receptor); details: drug added to human plasma

Question: With `COCCOC(=O)C1=C(C)NC(C)=C(C(=O)OC(C)C)C1c1cccc([N+](=O)[O-])c1` (stereo not shown) [Nimodipine, nimodipine] as the compound, how does the “effect on 3H-nitrendipine binding” value read?
Answer: The value was “inhibition”.

Question: With `COc1ccc([C@@H]2Sc3ccccc3N(CCN(C)C)C(=O)[C@@H]2OC(C)=O)cc1` [diltiazem] as the compound, how does the “effect on 3H-nitrendipine binding” value read?
Answer: The value was “reversal of tiapamil induced reduction”.

Question: With `CC(Cc1ccccc1)NCCC(c1ccccc1)c1ccccc1` (stereo not shown) [prenylamine] as the compound, how does the “effect on 3H-nitrendipine binding” value read?
Answer: The value was “inhibition”.

Question: With `COc1ccc(CCN(C)CCCC2(c3ccc(OC)c(OC)c3)S(=O)(=O)CCCS2(=O)=O)cc1OC` [tiapamil] as the compound, how does the “effect on 3H-nitrendipine binding” value read?
Answer: Its value is “reduction”.
